{"source": "patent US20180327375A1", "about": "“AROMATIC SURFACTANTS” (REGENTS OF THE UNIVERSITY OF MINNESOTA, priority 2015, published 2018)", "format_in_all_cases": "physicochemical", "key": {"[1]": {"experiment": "Krafft point by conductivity vs temperature", "details": "1.0 wt % surfactant in water (2.0 wt % for OFS-12-1/O)", "protocol": "Krafft point or Krafft temperature is the minimum temperature at which surfactants form micelles. Below Krafft point, the surfactants precipitate out of solution and remain in the crystalline phase. FIG. 30 depicts the apparatus utilized for the measurement of Krafft points. A 1.0 wt % solution of surfactant in deionized water was prepared for all surfactants except in the case of OFS-12-1/O where a 2.0 wt % solution was used instead, since its CMC is roughly about 1.1 wt %. 50 mL of the prepared solution was poured into a beaker surrounded by a freezing mixture of ice and salt (sodium chloride) mounted on a laboratory hot plate with magnetic stirring. The Krafft point (TK) of the surfactants was measured by estimating the degree of counterion dissociation using a conductivity meter (COND 6+, Oakton/Eutech Instruments) immersed in the surfactant solution capable of measuring both, conductivity and temperature. The magnetic stirring speed was set to 650 rpm and the solution was first allowed to cool to 0° C. Upon attainment of this temperature, the solution was slowly heated and the conductivity was measured in every 0.5° C. increments until it reached a steady value. […] Visually, this corresponded to the surfactant solution transitioning from a turbid system due to the precipitated surfactant crystals below the Krafft point to a clear solution indicating the dissolution of surfactants and the formation of micelles in water.\nFor the OFS-Cocinic, n=8-18 surfactant, the conductivity vs temperature plot was erratic, which is attributed to the presence of 6 different surfactants in the mixture. The solution changed from turbid to clear at approximately 18.5° C. which was, therefore, reported as the Krafft point. Methyl Ester Sulfonate (MES), Sodium Lauryl Ether Sulfate (SLES), OFS-7 and all OFS-n-1/O surfactant solutions remained clear even at 0° C.; the Krafft point was thus reported as <0° C."}, "[2]": {"experiment": "Hardness tolerance / hard water stability (surface tension and turbidity vs CaCl2 concentration)", "details": "for Turbid conc.: onset of turbidity", "source_text": "Precipitation of the anionic surfactant from hard water is an undesired process in detergency. The tendency of the anionic surfactants to precipitate is quantified by analyzing hardness tolerance. Hardness tolerance is the minimum concentration of counterion, such as, Ca^2+ and Mg^2+, precipitating with surfactant, resulting in deactivation of the surfactant performance (C. H. Rodriguez, L. H. Lowery, J. F. Scamehorn, J. H. Harwell, Kinetics of precipitation of surfactants. I. Anionic surfactants with calcium and with cationic surfactants. Journal of Surfactants and Detergents 4, 1-14 (2001); C. H. Rodriguez, C. Chintanasathien, J. F. Scamehorn, C. Saiwan, S. Chavadej, Precipitation in solutions containing mixtures of synthetic anionic surfactant and soap. I. Effect of sodium octanoate on hardness tolerance of sodium dodecyl sulfate. Journal of Surfactants and Detergents 1, 321-328 (1998); and J. F. Scamehorn, “Precipitation of mixtures of anionic surfactants” in mixed Surfactant systems ACS Symposium Series (American Chemical Society: Washington D.C., 1992), pp. 392-401). Calcium chloride was used as a divalent counterion, and surface tension of the surfactant solution was measured with increasing concentration of CaCl2 from 1 mM to 450 mM. The value of calcium concentration above which the surface tension of the surfactant solution increased was recorded as the tolerance value of the surfactant towards calcium as indicated by the dashed red line in FIGS. 46A to 49B.\nAll experiments were carried out at a concentration equal to twice CMC of each surfactant, and the point of transition from a clear solution to a turbid one was also monitored. FIGS. 50A to 50E illustrate this effect for a linear alkylbenzene sulfonate (LAS) solution. Below the turbid point, the surfactant solution was clear as shown by FIGS. 50B and 50C which changed to a cloudy solution at calcium concentrations equal to and greater than the turbid point (FIG. 50D and FIG. 50E). The point of micelle stability was marked by an increase in the surface tension of the surfactant solution with an increase in calcium concentration. FIG. 50C corresponds to the micelle stability concentration and FIG. 50D corresponds to the turbid concentration. Micelle stability is defined as the calcium concentration at the increasing point of surface tension, and turbid concentration marks the onset of turbidity in the surfactant solution The solution transitions from clear to turbid as shown in FIGS. 50B to 50E"}, "[3]": {"experiment": "Particle size distribution of micelles via dynamic light scattering (DLS)", "protocol": "Dynamic Light Scattering (DLS) has been used in the past for studying surfactant aggregates (N. Vlachy, M. Drechsler, J.-M. Verbavatz, D. Touraud, W. Kunz, Role of surfactant headgroup on the counterion specificity in the micelle-to-vesicle transition through salt addition. J. Colloid Interface Sci. 319, 542-548 (2008)). Micelle size distribution studies of the OFS-12 surfactant was performed using the Microtrac NANO-flex analyzer which employs a 180° scattering angle DLS technique. Two different surfactant concentration samples were prepared (5.0 and 10×CMC, 0.35 and 0.7 wt %) by dissolving the required amount of surfactant in deionized water and filtering the solution after surfactant dissolution using a 0.2μ micropore filter to remove any dust particles. Prior to each sample run, a blank solution (DI water) was used to set the baseline to zero. FIGS. 26A and 26B show the average particle size distribution plots for the surfactant solutions. The average values were computed based on five individual trials each lasting 120 sec."}}, "note": "“And” between values parts separate entries of the source, which are not always exact repeats. Equal values may be shown once. Where a name gives a salt, the structure may show the parent alone. Read-outs that look alike come from different tables or passages of the source.", "data": [{"compound": "CCCCCCCc1ccc(S(=O)(=O)[O-])o1.[Na+]", "note": "[OFS-7, Sodium 5-Heptylfuran-2-Sulfonate]", "values": [{"measurement": "Krafft Point", "setting": "[1]", "value": "< 0", "unit": "°C"}, {"measurement": "Micelle Stability", "setting": "[2]", "value": 120, "unit": "ppm Ca^2+"}, {"measurement": "Micelle stability conc.", "setting": "[2]", "value": "110 ppm of CaCl2"}, {"measurement": "Turbid conc.", "setting": "[2]; surfactant at twice CMC", "value": "230 ppm of CaCl2"}]}, {"compound": "CCCCCCCCCCCCc1ccc(S(=O)(=O)[O-])o1.[Na+]", "note": "[OFS-12, Sodium 5-Dodecylfuran-2-Sulfonate]", "values": [{"measurement": "Krafft Point", "setting": "[1]", "value": "30 °C and 30.0 ± 1.0 °C"}, {"measurement": "Average micelle size (number distribution)", "setting": "[3]; surfactant concentration 5.0×CMC in deionized water", "value": 7.41, "unit": "nm"}, {"measurement": "Average micelle size (number distribution)", "setting": "[3]; surfactant concentration 10.0×CMC in deionized water", "value": 6.29, "unit": "nm"}, {"measurement": "Micelle Stability", "setting": "[2]", "value": "> 50,000 ppm Ca^2+"}, {"measurement": "Micelle stability conc.", "setting": "[2]", "value": ">50,000 ppm of CaCl2"}, {"measurement": "Turbid conc.", "setting": "[2]; surfactant at twice CMC", "value": "10,000 ppm of CaCl2"}]}, {"compound": "CCCCCCCCCCCCCCc1ccc(S(=O)(=O)[O-])o1.[Na+]", "note": "[OFS-14, Sodium 5-Tetradecylfuran-2-Sulfonate]", "values": [{"measurement": "Krafft Point", "setting": "[1]", "value": "41.5 °C and 41.5 ± 0.9 °C"}, {"measurement": "Micelle Stability", "setting": "[2]", "value": "> 50,000 ppm Ca^2+"}, {"measurement": "Micelle stability conc.", "setting": "[2]", "value": ">50,000 ppm of CaCl2"}, {"measurement": "Turbid conc.", "setting": "[2]; surfactant at twice CMC", "value": "2,000 ppm of CaCl2"}]}, {"compound": "CCCCCCCCCCCCOS(=O)(=O)O", "note": "[SLS, sodium dodecyl sulfate, reference compound]", "values": [{"measurement": "Krafft Point", "setting": "[1]; sulfate", "value": "15 °C and 15.0 ± 1.2 °C"}, {"measurement": "Micelle stability conc.", "setting": "[2]; surfactant at twice CMC", "value": "33 ppm of CaCl2"}, {"measurement": "Micelle Stability", "setting": "[2]; surfactant at twice CMC, calcium concentration where surface tension starts to increase", "value": 33, "unit": "ppm Ca^2+"}, {"measurement": "Turbid conc.", "setting": "[2]; surfactant at twice CMC", "value": "33 ppm of CaCl2"}]}, {"compound": "sodium lauryl ether sulfate [SLES, reference compound]", "values": [{"measurement": "Krafft Point", "setting": "[1]", "value": "<0", "unit": "°C"}, {"measurement": "Micelle Stability", "setting": "[2]", "value": "> 50,000 ppm Ca^2+"}, {"measurement": "Micelle stability conc.", "setting": "[2]", "value": ">50,000 ppm of CaCl2"}, {"measurement": "Turbid conc.", "setting": "[2]; surfactant at twice CMC", "value": ">50,000 ppm of CaCl2"}]}]}
